# Results reported in PubChem BioAssay AID1963965 (Molecular Pharmacology Branch, DTP, NCI, 2024).
# Test system: 996289-038-R-J1-PDC spheroid viability
# Assay: Anticancer human tumor 996289-038-R-J1-PDC patient-derived colon adenocarcinoma cell line growth inhibition [PI3K]
# Details: spheroids with HUVEC and MSC; for IC50: curve of first compound; for viability, T/C: stronger effect = lower value
# In short: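 Targeted small molecules plus PI3K inhibitors, half-log dose series from Cmax (default top 10 microM), were applied to heterotypic spheroids of cancer cells with HUVEC and MSCs. Viability indicated growth inhibition.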
# [1] = second compound 0.0316 µM, first compound 0.0316 µM
# [2] = second compound 0.0316 µM, first compound 0.1 µM
# [3] = second compound 0.0316 µM, first compound 0.316 µM
# [4] = second compound 0.0316 µM, first compound 1 µM
# [5] = second compound 0.0316 µM, first compound 3.16 µM
# [6] = second compound 0.0316 µM, first compound 10 µM
# [7] = second compound 0.1 µM, first compound 0.0316 µM
# [8] = second compound 0.1 µM, first compound 0.1 µM
# [9] = second compound 0.1 µM, first compound 0.316 µM
# [10] = second compound 0.1 µM, first compound 1 µM
# [11] = second compound 0.1 µM, first compound 3.16 µM
# [12] = second compound 0.1 µM, first compound 10 µM
# [13] = second compound 0.316 µM, first compound 0.0316 µM
# [14] = second compound 0.316 µM, first compound 0.1 µM
# [15] = second compound 0.316 µM, first compound 0.316 µM
# [16] = second compound 0.316 µM, first compound 1 µM
# [17] = second compound 0.316 µM, first compound 3.16 µM
# [18] = second compound 0.316 µM, first compound 10 µM
# [19] = second compound 1 µM, first compound 0.0316 µM
# [20] = second compound 1 µM, first compound 0.1 µM
# [21] = second compound 1 µM, first compound 0.316 µM
# [22] = second compound 1 µM, first compound 1 µM
# [23] = second compound 1 µM, first compound 3.16 µM
# [24] = second compound 1 µM, first compound 10 µM
# [25] = second compound 3.16 µM, first compound 0.0316 µM
# [26] = second compound 3.16 µM, first compound 0.1 µM
# [27] = second compound 3.16 µM, first compound 0.316 µM
# [28] = second compound 3.16 µM, first compound 1 µM
# [29] = second compound 3.16 µM, first compound 3.16 µM
# [30] = second compound 3.16 µM, first compound 10 µM
# [31] = second compound 10 µM, first compound 0.0316 µM
# [32] = second compound 10 µM, first compound 0.1 µM
# [33] = second compound 10 µM, first compound 0.316 µM
# [34] = second compound 10 µM, first compound 1 µM
# [35] = second compound 10 µM, first compound 3.16 µM
# [36] = second compound 10 µM, first compound 10 µM
# 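Also: spheroids exposed to compounds for seven days before viability read.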
# 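For viability, T/C in this document: luminescence used as a proxy for viable cell amount; percent viability relative to DMSO vehicle control as 100%.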
structure (smiles),measurement,setting,value
CC(C)NCC(C(=O)N1CCN(c2ncnc3c2C(C)CC3O)CC1)c1ccc(Cl)cc1 (stereo unspecified) + Cc1nc(NC(=O)N2CCCC2C(N)=O)sc1-c1ccnc(C(C)(C)C(F)(F)F)c1,IC50,second compound 0.0316 µM,> 10 µM
same,IC50,second compound 0.1 µM,> 10 µM
same,IC50,second compound 0.316 µM,> 10 µM
same,IC50,second compound 1 µM,> 10 µM
same,IC50,second compound 3.16 µM,5.06 µM
same,IC50,second compound 10 µM,< 0.0316 µM
same,"viability, T/C",[1],82.8%
same,"viability, T/C",[2],92.3%
same,"viability, T/C",[3],85.9%
same,"viability, T/C",[4],97.7%
same,"viability, T/C",[5],85.2%
same,"viability, T/C",[6],66.7%
same,"viability, T/C",[7],82.4%
same,"viability, T/C",[8],81%
same,"viability, T/C",[9],97.9%
same,"viability, T/C",[10],82.1%
same,"viability, T/C",[11],82.1%
same,"viability, T/C",[12],66.2%
same,"viability, T/C",[13],76.5%
same,"viability, T/C",[14],88.8%
same,"viability, T/C",[15],81.7%
same,"viability, T/C",[16],69.2%
same,"viability, T/C",[17],78.4%
same,"viability, T/C",[18],54.5%
same,"viability, T/C",[19],68.7%
same,"viability, T/C",[20],60.7%
same,"viability, T/C",[21],67.8%
same,"viability, T/C",[22],69.5%
same,"viability, T/C",[23],59.5%
same,"viability, T/C",[24],51%
same,"viability, T/C",[25],61%
same,"viability, T/C",[26],60%
same,"viability, T/C",[27],60.7%
same,"viability, T/C",[28],59.1%
same,"viability, T/C",[29],57%
same,"viability, T/C",[30],40.1%
same,"viability, T/C",[31],45.7%
same,"viability, T/C",[32],35.9%
same,"viability, T/C",[33],43.5%
same,"viability, T/C",[34],45.9%
same,"viability, T/C",[35],34.3%
same,"viability, T/C",[36],28.2%
CCN1CCN(Cc2ccc(Nc3ncc(F)c(-c4cc(F)c5nc(C)n(C(C)C)c5c4)n3)nc2)CC1 + Cc1nc(NC(=O)N2CCCC2C(N)=O)sc1-c1ccnc(C(C)(C)C(F)(F)F)c1,IC50,second compound 0.0316 µM,> 1 µM
same,IC50,second compound 0.1 µM,> 1 µM
same,IC50,second compound 0.316 µM,> 1 µM
same,IC50,second compound 1 µM,> 1 µM
same,IC50,second compound 3.16 µM,0.0376 µM
same,IC50,second compound 10 µM,< 0.00316 µM
same,"viability, T/C","second compound 0.0316 µM, first compound 0.00316 µM",84.2%
same,"viability, T/C","second compound 0.0316 µM, first compound 0.01 µM",72%
same,"viability, T/C",[1],83.4%
same,"viability, T/C",[2],78.7%
same,"viability, T/C",[3],72.7%
same,"viability, T/C",[4],79.7%
same,"viability, T/C","second compound 0.1 µM, first compound 0.00316 µM",89.8%
same,"viability, T/C","second compound 0.1 µM, first compound 0.01 µM",83%
same,"viability, T/C",[7],79.7%
same,"viability, T/C",[8],75.4%
same,"viability, T/C",[9],75.2%
same,"viability, T/C",[10],67.3%
same,"viability, T/C","second compound 0.316 µM, first compound 0.00316 µM",85.9%
same,"viability, T/C","second compound 0.316 µM, first compound 0.01 µM",74.4%
same,"viability, T/C",[13],70.7%
same,"viability, T/C",[14],63%
same,"viability, T/C",[15],63.1%
same,"viability, T/C",[16],59.2%
same,"viability, T/C","second compound 1 µM, first compound 0.00316 µM",75.8%
same,"viability, T/C","second compound 1 µM, first compound 0.01 µM",74.2%
same,"viability, T/C",[19],56.7%
same,"viability, T/C",[20],54.8%
same,"viability, T/C",[21],58.4%
same,"viability, T/C",[22],50.9%
same,"viability, T/C","second compound 3.16 µM, first compound 0.00316 µM",51.4%
same,"viability, T/C","second compound 3.16 µM, first compound 0.01 µM",56.2%
same,"viability, T/C",[25],51.4%
same,"viability, T/C",[26],46.1%
same,"viability, T/C",[27],43.7%
same,"viability, T/C",[28],44.2%
same,"viability, T/C","second compound 10 µM, first compound 0.00316 µM",37.5%
same,"viability, T/C","second compound 10 µM, first compound 0.01 µM",40%
same,"viability, T/C",[31],33.9%
same,"viability, T/C",[32],33.6%
same,"viability, T/C",[33],29.6%
same,"viability, T/C",[34],27.9%
Cn1ncc(Cl)c1-c1cc(C(=O)NC(CN)Cc2cccc(F)c2)sc1Cl (stereo unspecified) + Cc1nc(NC(=O)N2CCCC2C(N)=O)sc1-c1ccnc(C(C)(C)C(F)(F)F)c1,IC50,second compound 0.0316 µM,9.68 µM
same,IC50,second compound 0.1 µM,4.61 µM
same,IC50,second compound 0.316 µM,2.74 µM
same,IC50,second compound 1 µM,1.39 µM
same,IC50,second compound 3.16 µM,0.659 µM
same,IC50,second compound 10 µM,< 0.0316 µM
same,"viability, T/C",[1],76.9%
same,"viability, T/C",[2],91.2%
same,"viability, T/C",[3],78.2%
same,"viability, T/C",[4],63.9%
same,"viability, T/C",[5],60%
same,"viability, T/C",[6],47.6%
same,"viability, T/C",[7],89.2%
same,"viability, T/C",[8],80.3%
same,"viability, T/C",[9],78.5%
same,"viability, T/C",[10],56%
same,"viability, T/C",[11],55.9%
same,"viability, T/C",[12],45.1%
same,"viability, T/C",[13],75.2%
same,"viability, T/C",[14],87.5%
same,"viability, T/C",[15],67.1%
same,"viability, T/C",[16],58%
same,"viability, T/C",[17],51.9%
same,"viability, T/C",[18],31.5%
same,"viability, T/C",[19],82.4%
same,"viability, T/C",[20],71.8%
same,"viability, T/C",[21],63.4%
same,"viability, T/C",[22],53.9%
same,"viability, T/C",[23],42.4%
same,"viability, T/C",[24],31.7%
same,"viability, T/C",[25],61%
same,"viability, T/C",[26],63.6%
same,"viability, T/C",[27],59.2%
same,"viability, T/C",[28],43.4%
same,"viability, T/C",[29],34.5%
same,"viability, T/C",[30],24.9%
same,"viability, T/C",[31],34.8%
same,"viability, T/C",[32],36.4%
same,"viability, T/C",[33],41.6%
same,"viability, T/C",[34],35.5%
same,"viability, T/C",[35],27.3%
same,"viability, T/C",[36],16.2%
